According to publication PMC10780202, “Systemic Treatment with Fas-Blocking Peptide Attenuates Apoptosis in Brain Ischemia” (International Journal of Molecular Sciences, 2024):

What was measured:
[1] = test system: hypoxic-N2a cells; assay: FasL-induced apoptosis in hypoxic N2a cells, Annexin V-PE staining; assay type: cell-based, mouse; conditions: hypoxic N2a cells treated with FasL, then peptide; for effect on Fas-mediated apoptosis / cell death compared to control: Fig 1B,C, three independent experiments
Method: Figure 1 The inhibitory effect of FBP or leptin-PEG-FBP (L-P-F) on FasL-induced apoptosis in hypoxic-N2a. (A) Schematic illustration of the L-P-F peptide synthesis. (B,C) The N2a cells were cultured in a hypoxic condition in the presence of membrane-bound soluble FasL (5 nM) for 6 h, as described in the Methods section. The cells were then treated with 300 μM of the indicated peptides for 6 h and examined for Annexin V-PE staining. (B) Representative histograms illustrate the percentage of apoptosis with the peptide treatments, depicting live cells (in black) and apoptotic cells (in red). (C) Bar graph represents the percentage of Annexin V positive cells with the peptide treatments. Normoxia describes cells cultured in normal oxygen conditions. Hypoxia describes cells cultured in hypoxic conditions. The bar graph indicates the average ± SD of three independent experiments. The data in (C) was analyzed using Mann–Whitney U test (* p < 0.05; ns: not-significant). TEXT PRINTED IN THE PICTURE: (B) Mock: Annexin V: 86.4 | (B) ctrl-FBP: Annexin V: 82.0 | (B) Leptin: Annexin V: 83.5 | (B) FBP: Annexin V: 54.0 | (B) L-P-F: Annexin V: 56.5 DOUBTS OF THE COPYIST ABOUT THIS PICTURE: Panel B: the gate numbers have no unit or measure printed beside them; 'Annexin V' comes from the axis label printed once at the edge of the panel. / Panel B, Mock: this is a control treatment, not a substance; it is included because a gate value is printed with it. / Small print in panel B, so these digits are not certain: Mock 86.4, ctrl-FBP 82.0, Leptin 83.5, FBP 54.0, L-P-F 56.5.
To evaluate the effect of leptin-PEG-FBP on Fas-mediated apoptosis, hypoxic Neuro2a mouse neuroblastoma (N2a) cells were treated with FasL ([…]), followed by a treatment with the peptides indicated in Figure 1B.
Neuro2a mouse neuroblastoma cells (N2a) were obtained from ATCC (Rockville, MD) and cultured in Dulbecco’s modified Eagle’s medium (DMEM, Gibco) containing 10% fetal bovine serum, penicillin (100 IU/mL), and streptomycin (100 μg/mL). To mimic the in vitro ischemia/reperfusion environment, N2a cells were maintained in a hypoxic condition (94% N2, 5% CO2, 1% O2, 37 °C) in oxygen glucose deprivation media (OGD, Life Technologies, Carlsbad, CA, USA) for 24 h. The cells were then reoxygenated in DMEM supplemented with 10% FBS (5% CO2, 20% O2, 37 °C) for another 24 h and cultured in Dulbecco’s modified Eagle’s medium (DMEM) (Gibco) containing high glucose, supplemented with 10% calf serum and 1% penicillin-streptomycin. To analyze the functional effects of leptin-PEG-FBP, normoxia- and hypoxia-induced N2a cells were seeded in a six-well plate at 2 × 10^5/well with serum-free DMEM and treated with leptin-PEG-FBP at 1 mM for 6 h followed by exposure to a soluble Fas ligand (5 nM). […]

[2] = test system: MCAO rat model; assay: TUNEL assay of brain sections of MCAO rats; assay type: in vivo; conditions: 48 h post-MCAO
Method: Ischemic stroke conditions in rat MCAO models lead to brain damage primarily through apoptosis. To assess the therapeutic effects of leptin-PEG-FBP on Fas-mediated apoptosis, we administrated 5 mg/kg of FBP systemically at 3 h and 6 h post-MCAO. At 48 h post-MCAO, we conducted necropsy to estimate the protein levels of Fas and cleaved caspase-3 in the brain samples. Ischemic stroke induced an elevated level of Fas and cleaved caspase-3, similar to the PBS-treated MCAO rats. […] Approximately 52% of cells were TUNEL-positive in the PBS-treated group, 55% in the PEG-FBP, and 47% in the leptin-treated group (Figure 5B). […]
Figure 5 Leptin-PEG-FBP attenuates apoptosis in the MCAO rat model. […] (A) Representative Western blots and quantification of protein expression for Fas and cleaved caspase-3 in the brain of […] at 48 h post-MCAO. […] (B) Representative microscopy images of TUNEL-stained brain sections (red) and quantification of TUNEL-positive cells in the ischemic region of MCAO after necropsy. (C) Representative microscopy images of cleaved caspase-3-stained brain sections (green) and quantification of positive cells in the ischemic region of MCAO after necropsy. […] Data represent mean ± SD (n = 3 animals per group) and were analyzed using Mann–Whitney U test. […]

[3] = test system: MCAO rat model; assay: TTC staining, infarction in MCAO rats; assay type: in vivo; conditions: 5 mg/kg i.v., 48 h post-MCAO, n = 5, PBS group 37%, Fig 6A
Method: (§1) The induction of apoptosis in the penumbra after MCAO results in brain damage, leading to the formation of infarcts or areas of tissue damage. To examine the impact of leptin-PEG-FBP on brain infraction, we conducted triphenyltetrazolium chloride (TTC) staining at 48 h post-treatment.
(§2) Figure 6 Improvement of MCAO-induced infarction and histopathological changes with leptin-PEG-FBP treatment. MCAO rats were systemically treated with indicated peptides (5 mg/kg, i.v.) at […]. (A) Brain slices stained with TTC after necropsy. Quantitative analysis of infarction is shown on the right. Data represent mean ± SD (n = 5 animals per group). (B) Images of Nissl-stained brain slices (left) and quantitative analysis of infarction volume on the right. (C) Representative images of hematoxylin and eosin (H&E) brain sections from normal or MCAO-subjected animals after treatment. Data were analyzed using Mann–Whitney U test. Data represent the mean ± SD (* […]; ** p < 0.01; ns: not-significant).
Pathology in brain tissues was analyzed by staining 2 mm brain slices in 2% 2,3,5-tryphenyltetrazolium chloride (TTC, Sigma Aldrich, St. Louis, MO, USA) for 15 min at 37 °C. The infarcted volume was calculated after fixation using Image J software version 1.54d, as described.

[4] = test system: MCAO rat model; assay: Nissl staining, infarction volume in MCAO rats; assay type: in vivo; conditions: 5 mg/kg i.v., 48 h, PBS group around 45%, Fig 6B
Method: as §1, §2
Infarcted brain volume was analyzed using Nissl staining. The OCT-embedded brain samples for cryosection were fixed using 4% PFA at room temperature and subjected to 0.1% crystal violet solution following standard protocol. The stained sections were cover-slipped and blindly pictured using full-screening scanner. The infarcted volume was calculated using Image J software version 1.54d.

[5] = test system: MCAO rat model; assay: H&E histology of brain sections of MCAO rats; assay type: in vivo; conditions: 5 mg/kg i.v., 48 h, Fig 6C
Method: as §1, §2
Rats were sacrificed and perfused with PBS. Brains were carefully removed, embedded in OCT compound (Sakura Finetek, Alphen aan den Rijn, The Netherlands), rapidly cryopreserved in frigid isopentane chilled with liquid nitrogen, and stored at −80 °C until the subsequent sectioning procedure. […]

[6] = rat, in vivo, iv
Method: Figure S2. Leptin peptide-mediated brain delivery in rats. Biodistribution (left panel)
of A647-conjugated peptides delivered intravenous (n=3) in normal rats. Brain, lung,
liver, spleen and kidney were examined 24 hr post- inoculation. Rats were treated with
RV -M AT , the control peptide and the leptin peptide. Cumulative data (right panel)
show relative fluorescence intensities measured in arbitrary pixel values for examined
tissues. The measurements are compared to the n ormal groupand are based on three
(1 picture or pasted object on this page, not shown here)

[7] = mouse, in vivo, iv, 2.5 mg/kg
Method: To confirm the specificity of leptin-mediated FBP delivery to the brain, we systemically administered Alexa^647-conjugated leptin alone, PEG-FBP, and leptin-PEG-FBP in leptin receptor-deficient db/db mice subjected to photothrombosis (Figure 3A).
Wildtype and leptin receptor-deficient (db/db) mice were subjected to photothrombotic stroke, followed by administration of the indicated peptides (2.5 mg/kg Alexa^647-labelled peptides, i.v.). Organs were collected at 12 h post-delivery and imaged on Kodak imaging station. (A,B) Representative images and quantification of fluorescence intensities after necropsy. Control mice were inoculated with PBS. Fluorescence intensities measured in arbitrary pixel values were normalized to fluorescence intensities in the PBS-treated group. The data represent mean ± SD (n = 5 per group). The data in (B) were analyzed using Mann–Whitney U test (* p < 0.05; ** p < 0.01).
(§3) For bio-distribution studies, Alexa^647-conjugated peptides were intravenously (IV) administered at 2.5 mg/kg. […] Fluorescence was analyzed at designated time points. After 12 h inoculation, fluorescence was measured in the brain, lung, liver, spleen, and kidney using image station (Kodak, Stamford, CT, USA).

[8] = rat, in vivo
Method: To explore the feasibility of ischemic-specific FBP delivery, we administered Alexa^647-conjugated peptides to a rat middle cerebral artery occlusion (MCAO) ischemic stroke model. The peptides were delivered via the intravenous route (2.5 mg/kg) and the brain and peripheral organs were examined 24 h post-inoculation. […] Next, we conducted an in-depth analysis to validate the localization through confocal microscopy.
Rats underwent middle cerebral artery occlusion, followed by the administration of the indicated Alexa^647-labelled peptides (2.5 mg/kg, i.v.). Organs were harvested 24 h post-inoculation and imaged on Kodak imaging station. […] Control mice were inoculated with PBS.
Acute cerebral ischemia was produced using a 1 h occlusion of the right middle cerebral artery (MCAO) in Sprague–Dawley rats weighing 280–320 g (Orient Bio, Seoul, Republic of Korea), as previously described [76]. […]
as §3

[9] = test system: Jurkat cells; assay: FasL-mediated apoptosis in Jurkat cells, Annexin V staining (effect of PEG size); assay type: cell-based; conditions: membrane-bound soluble FasL 20 ng/ml, 3 hr, peptides 300 µM, FasL alone approximately 40% apoptosis, three independent experiments, Fig S1
Text: In a prior study, we observed that the Fas-blocking peptide (FBP) effectively disrupted Fas–FasL interactions, thereby inhibiting Fas-mediated apoptosis both in vitro and in vivo when delivered intranasally. In this study, we explored the impact of FBP through the clinically relevant systemic route of delivery. To conjugate FBP with leptin, a brain-targeting peptide that effectively penetrates the BBB, we employed polyethylene glycol (PEG) as a linker. We initially evaluated the toxicity of PEG of various sizes in Jurkat cells. The treatment of Jurkat cells with membrane-bound FasL induced approximately 40% apoptosis compared to non-FasL (normal) cells. […] Based on our findings, we conjugated PEG-2K to FBP (PEG-FBP) and then linked it with the leptin peptide. […] (Figure S2). The conjugation schematic is illustrated in Figure 1A.
Figure S1. Effect of PEGylation length on apoptosis inhibition by FBP peptides. ( A) Apoptosis in Jurkat cells was assessed 3 hr post- treatment with membrane-bound soluble FasL (20 ng/ml), with and without peptides at a concentration of 300 µM using Annexin V staining. (B-C) Bar graphs illustrating the percentage of cells in early (B) and late (C) apoptosis. The compar ison includes non- treated, ctrl- FBP, FBP, and various PEGylated FBP (1K, 2K, 3.4K, 5K, 10K) after FasL treatment in Jurkat cells. […]

Row | Sequence | effect on Fas-mediated apoptosis / cell death compared to control [1] | TUNEL-positive cells in the ischemic region ([2]; 5 mg/kg i.v. at 3 h and 6 h post-MCAO, confocal, n = 3, PBS group 52%, Fig 5B) | change in TUNEL and cleaved caspase-3 positive cells ([2]; 5 mg/kg i.v., Fig 5B,C) | infarction volume, TTC staining [3] | infarction volume, Nissl staining [4] | tissue damage in right hemisphere, H&E staining [5] | delivery to the brain compared to negative control peptide RV-MAT [6] | brain delivery in leptin receptor-deficient db/db mice [7] | Alexa647-positive cells in brain sections, confocal microscopy [8] | decrease in Annexin V positivity upon exposure to FasL ([1]; Fig 1B) | effect on FasL-mediated apoptosis in Jurkat cells [9]
1 | YCNSTVCY [ctrl-FBP, control FBP peptide YCNSTVCY] | did not demonstrate a reduction | – | – | – | – | – | – | – | – | – | –
2 | YQQVLTSLPSQNVLQIANDLENLRDLLHLLGGGC [leptin] | did not demonstrate a reduction | ~47% | no significant changes | 32% | ~45% | significant damage to the tissue morphology | successful delivery to the brain | did not bind to the brain | strong Alexa^647 positive cells | – | –
3 | YCDEHFCY [FBP] | significantly reduced cell death | – | – | – | – | – | – | – | – | 40% | significantly reduced FasL-mediated apoptosis
